# Source: US20130004588A1, “DIVALENT CATION CONTAINING COMPOSITIONS AND METHODS FOR TREATING AND/OR PREVENTING ENZYMATIC IRRITATION” (priority 2011, published 2013)
# Key:
# [1] = tested on: trypsin; experiment: Inhibition of trypsin-induced cleavage of fluorescent casein, EnzChek protease assay (cations and salt forms, Examples 1 and 2); type: biochemical
# Experimental: The inhibition of trypsin-induced cleavage of a fluorescent casein peptide was measured using the EnzChek™ protease assay kit, following manufacturer's instructions (EnzChek™ Protease Assay Kits Product Information, Revised; Molecular Probes, Eugene Oreg.). Briefly, test materials at different concentrations were prepared in 1×phosphate buffered saline (PBS, pH 7.4). Trypsin working solution (Sigma, St. Louis, Mo., unit/mL) was prepared in digestion buffer provided in the assay kit. Stock solution of BODIPY FL casein (trypsin substrate, mg/mL) was prepared by adding 0.2 mL to the substrate vials (provided in kit), and the final substrate working solution (10 microgram/mL) was prepared by dilution in digestion buffer (pH 7.8). […] Each experiment was performed in three replicates.
# [2] = target: T1, trypsin (Bos taurus, UniProt P00760); settings: low concentrations, around 0.001 M; cited from earlier work
# T1 sequence (P00760 24-246): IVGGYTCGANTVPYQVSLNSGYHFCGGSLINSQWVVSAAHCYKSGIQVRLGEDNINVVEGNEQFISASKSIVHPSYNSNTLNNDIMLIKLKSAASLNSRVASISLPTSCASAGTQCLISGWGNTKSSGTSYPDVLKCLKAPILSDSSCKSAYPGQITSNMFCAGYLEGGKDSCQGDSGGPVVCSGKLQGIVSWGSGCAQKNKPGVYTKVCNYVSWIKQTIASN
# [3] = tested on: trypsin; experiment: EnzChek trypsin inhibition assay, mixtures of talc with divalent cation salts (Example 3); type: biochemical; settings: for With Talc trypsin inhibition activities (%): all tested materials at 0.1% (g/mL); for Hypothetically calculated additive value of salt and Talc: Table 4
# Experimental: The objective of the following experiment was to determine whether and to what extent adding a divalent cation to talc inhibited trypsin activity in an in vitro assay. The inhibition of trypsin-induced cleavage of a fluorescent casein peptide was measured using the EnzChek™ protease assay kit, following manufacturer's instructions (EnzChek™ Protease Assay Kits Product Information, Revised; Molecular Probes, Eugene Oreg.). […] Trypsin working solution (Sigma, St. Louis, Mo., unit/mL) was prepared in digestion buffer provided in the assay kit. Stock solution of BODIPY FL casein (trypsin substrate, mg/mL) was prepared by adding 0.2 mL to the substrate vials (provided in kit), and the final substrate working solution (10 microgram/mL) was prepared by dilution in digestion buffer (pH 7.8). Following incubation of the trypsin, with or without the test materials, with the BODIPY fluorescent casein substrate, at room temperature for one hour, fluorescence was measured (excitation 485 nm /emission 530 nm) using a SpectraMax microtiter plate reader (Molecular Devices Corporation, Sunnyvale, Calif.) and Softmax Pro software (Molecular Devices Corporation). Each experiment was performed in three replicates.
# [4] = tested on: trypsin; experiment: EnzChek trypsin inhibition assay, zinc oxide/acid mixtures and zinc oxide containing formulations (Example 4); type: biochemical; settings: for % trypsin inhibitory activity: Table 5
# Experimental: The objective of the following experiment was to determine whether and to what extent adding an acid to a formulation containing zinc oxide had on inhibition of trypsin activity in an in vitro assay. The inhibition of trypsin-induced cleavage of a fluorescent casein peptide was measured using the EnzChek™ protease assay kit, following manufacturer's instructions (EnzChek™ Protease Assay Kits Product Information, Revised; Molecular Probes, Eugene Oreg.). Briefly, mixtures of zinc oxide and acid at different concentrations were prepared in 1×PBS (pH 7.4) and their pH was recorded as listed in the Tables 5-8. Trypsin working solution (Sigma, St. Louis, Mo., unit/mL) was prepared in digestion buffer provided in the assay kit. Stock solution of BODIPY FL casein (trypsin substrate, mg/mL) was prepared by adding 0.2 mL to the substrate vials (provided in kit), and the final substrate working solution (10 microgram/mL) was prepared by dilution in digestion buffer (pH 7.8). Following incubation of the trypsin, with or without the test materials (50 μl), with the BODIPY fluorescent casein substrate, at room temperature for one hour, fluorescence was measured (excitation 485 nm/emission 530 nm) using a SpectraMax microtiter plate reader (Molecular Devices Corporation, Sunnyvale, Calif.) and Softmax Pro software (Molecular Devices Corporation). Each experiment was performed in three replicates.
# For preparations, samples were diluted in 1×PBS at 1:10 ratio and subjected to centrifugation at 13,200 rpm for 1 min using Eppendorf Centrifuge (Model 5415D, Eppendorf AG, Hamburg, Germany) to remove the solid formulation ingredients. The supernatants (50 μl) were used for trypsin inhibitory activity analyses as described above. For preparations, samples were diluted in 10, or 20 or 40% ethanol and subjected to centrifugation at 13,200 rpm for 1 min using Eppendorf Centrifuge (Model 5415D, Eppendorf AG, Hamburg, Germany) to remove the solid formulation ingredients. The supernatants (50 μl) were used for trypsin inhibition assay. Possible effects of ethanol solution (10, 20 or 40% ethanol) on trypsin inhibition activity were tested in the same study and found no significant impact.
compound,measurement,setting,value
O.O.[Cl][Cu][Cl] [(II) chloride dihydrate],% trypsin inhibitory activity,"[1]; Table 1, 0.01% (g/mL)",64.98%
same,% trypsin inhibitory activity,"[1]; Table 1, 0.10% (g/mL)",99.34%
same,% trypsin inhibitory activity,"[1]; Table 1, 1% (g/mL)",108.34%
[Ag+] [Ag+],inhibition of the esterase activity of trypsin,[2],inhibited
CC(=O)[O-].CC(=O)[O-].O.[Ca+2] [Calcium acetate monohydrate],% synergistic activity relative to hypothetic additive value,"[3]; Table 3, 0.1% (g/mL)",3.10%
same,With Talc trypsin inhibition activities (%),[3]; Table 3,24.6%
[Ca+2].[Cl-].[Cl-] [Calcium chloride],% synergistic activity relative to hypothetic additive value,"[3]; Table 3, 0.1% (g/mL)",−0.26%
same,With Talc trypsin inhibition activities (%),[3]; Table 3,26.43%
[Cu+2] [Cu++],inhibition of the esterase activity of trypsin,[2],inhibited
[Hg+2] [Hg++],inhibition of the esterase activity of trypsin,[2],inhibited
O.O.O.O.[Cl][Fe][Cl] [Iron (II) chloride tetrahydrate],% trypsin inhibitory activity,"[1]; Table 1, 0.01% (g/mL)",−3.24%
same,% trypsin inhibitory activity,"[1]; Table 1, 0.10% (g/mL)",64.84%
same,% trypsin inhibitory activity,"[1]; Table 1, 1% (g/mL)",112.23%
same,% synergistic activity relative to hypothetic additive value,"[3]; Table 3, 0.1% (g/mL)",−12.35%
same,With Talc trypsin inhibition activities (%),[3]; Table 3,64.53%
"[Cl-].[Li+] [Lithium chloride, reference compound]",% trypsin inhibitory activity,"[1]; Table 1, 0.01% (g/mL)",8.71%
same,% trypsin inhibitory activity,"[1]; Table 1, 0.10% (g/mL)",7.56%
same,% trypsin inhibitory activity,"[1]; Table 1, 1% (g/mL)",−0.56%
CC(=O)[O-].CC(=O)[O-].O.O.O.O.[Mg+2] [Magnesium acetate tetrahydrate],% trypsin inhibitory activity,"[1]; Table 2, 0.10% weight (g/mL)",−3.09%
same,Salt alone trypsin inhibition activities (%),"[3]; Table 3, 0.1% (g/mL)",0.83%
same,With Talc trypsin inhibition activities (%),[3]; Table 3,17.83%
[Cl-].[Cl-].[Mg+2] [Magnesium chloride],With Talc trypsin inhibition activities (%),[3]; Table 3,20.05%
same,Hypothetically calculated additive value of salt and Talc,"[3]; 0.1% MgCl2, 1% Talc",12.44%
same,Hypothetically calculated additive value of salt and Talc,"[3]; 0.5% MgCl2, 1% Talc",22.93%
same,Hypothetically calculated additive value of salt and Talc,"[3]; 1% MgCl2, 1% Talc",25.55%
same,trypsin inhibitory activity (in words),[3]; talc and magnesium chloride alone or combined,moderate to low levels
"O=[N+]([O-])[O-].[Ag+] [Silver nitrate, reference compound]",% trypsin inhibitory activity,"[1]; Table 1, 0.01% (g/mL)",−2.43%
same,% trypsin inhibitory activity,"[1]; Table 1, 0.10% (g/mL)",2.91%
same,% trypsin inhibitory activity,"[1]; Table 1, 1% (g/mL)",5.37%
"[Cl-].[Na+] [Sodium chloride, reference compound]",% trypsin inhibitory activity,"[1]; Table 1, 0.01% (g/mL)",−7.57%
same,% trypsin inhibitory activity,"[1]; Table 1, 0.10% (g/mL)",−4.15%
same,% trypsin inhibitory activity,"[1]; Table 1, 1% (g/mL)",10.88%
[Cl-].[Cl-].[Sr+2] [Strontium chloride],% trypsin inhibitory activity,"[1]; Table 1, 0.01% (g/mL)",6.51%
same,% trypsin inhibitory activity,"[1]; Table 1, 0.10% (g/mL)",11.78%
same,% trypsin inhibitory activity,"[1]; Table 1, 1% (g/mL)",47.05%
CC(=O)[O-].CC(=O)[O-].[Zn+2] [Zinc acetate dihydrate],% synergistic activity relative to hypothetic additive value,"[3]; Table 3, 0.1% (g/mL)",−15.70%
same,With Talc trypsin inhibition activities (%),[3]; Table 3,60.18%
[Cl-].[Cl-].[Zn+2] [Zinc chloride],% trypsin inhibitory activity,"[1]; Table 1, 0.01% (g/mL)",42.99%
same,% trypsin inhibitory activity,"[1]; Table 1, 0.10% (g/mL)",88.51%
same,% trypsin inhibitory activity,"[1]; Table 1, 1% (g/mL)",105.87%
same,% trypsin inhibitory activity,"[1]; Table 2, 0.01% weight (g/mL)",41.25%
same,% trypsin inhibitory activity,"[1]; Table 2, 0.10% weight (g/mL)",87.69%
same,% trypsin inhibitory activity,"[1]; Table 2, 1% weight (g/mL)",98.75%
same,% synergistic activity relative to hypothetic additive value,"[3]; Table 3, 0.1% (g/mL)",−13.01%
same,With Talc trypsin inhibition activities (%),[3]; Table 3,77.96%
CC(O)C(=O)[O-].CC(O)C(=O)[O-].[Zn+2] (stereo not drawn) [Zinc lactate],% trypsin inhibitory activity,"[1]; Table 2, 0.01% weight (g/mL)",23.01%
same,% trypsin inhibitory activity,"[1]; Table 2, 0.10% weight (g/mL)",36.36%
same,% trypsin inhibitory activity,"[1]; Table 2, 1% weight (g/mL)",87.95%
"[O]=[Zn] [ZnO, zinc oxide]",% trypsin inhibitory activity,"[4]; 0.1% ZnO with 0.01% acetic acid, pH 7.28",1.85 +/− 1.34%
same,% trypsin inhibitory activity,"[4]; 0.1% ZnO with 0.05% acetic acid, pH 6.03",49.16 +/− 1.43%
same,% trypsin inhibitory activity,"[4]; 0.1% ZnO, no acetic acid, pH 7.61",−2.6 +/− 2.76%
same,% trypsin inhibitory activity,"[4]; 1% ZnO with 0.01% acetic acid, pH 7.85",15.82 +/− 1.68%
same,% trypsin inhibitory activity,"[4]; 1% ZnO with 0.05% acetic acid, pH 6.08",58.19 +/− 0.73%
same,% trypsin inhibitory activity,"[4]; 1% ZnO, no acetic acid, pH 8.07",5.40 +/− 1.24%
same,trypsin inhibitory activity (in words),[4]; conclusion from Tables 5-8,minimal protease activity
CC(=O)O [acetic acid],% trypsin inhibitory activity,"[4]; no ZnO, 0.01% acetic acid, pH 6.84",−11.18 +/− 2.61%
same,% trypsin inhibitory activity,"[4]; no ZnO, 0.05% acetic acid, pH 4.75",25.81 +/− 2.13%
Zinc gluconate,% trypsin inhibitory activity,"[1]; Table 2, 0.01% weight (g/mL)",25.33%
same,% trypsin inhibitory activity,"[1]; Table 2, 0.10% weight (g/mL)",40.93%
same,% trypsin inhibitory activity,"[1]; Table 2, 1% weight (g/mL)",85.52%
